± gives the standard deviation of the averaged measurements.
Columns and labels:
Assay in all cases: level (log10 ratio to DMSO vehicle control); higher = higher biomarker level / cell amount than vehicle control
[1] = compound: C=C(C)C(=O)OCCC(F)(F)C(F)(F)C(F)(F)C(F)(F)C(F)(F)C(F)(F)F [6:2 Fluorotelomer methacrylate]; settings: in DMSO
Procedure: (§1)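 BioMAP Diversity Plus panel of 12 human primary cell co-culture systems (3C, 4H, LPS, SAg, BT, BF4T, BE3C, CASM3C, HDF3CGF, KF3CT, MyoF, Mphg). Compounds were added 1 h before stimulation and left for 24 h (MyoF 48 h; BT 72 h for soluble read-outs or 6 d for IgG). Biomarkers were read by ELISA, cytotoxicity by SRB, PBMC viability and proliferation by Alamar Blue. Each well value was divided by the mean of 8 DMSO control wells on the same plate and log10 transformed; duplicate blinded samples were tested at 4 concentrations.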

[2] = compound: C=CC(=O)OCC(F)(F)C(F)(F)C(F)(F)COC(=O)C=C [1H,1H,5H,5H-Perfluoro-1,5-pentanediol diacrylate]; settings: 6700 nM; in DMSO
Procedure: as §1

[3] = compound: COC(=O)C(F)(F)C(F)(F)OC(F)(C(F)(F)F)C(F)(F)OC(F)=C(F)F [Methyl perfluoro(3-(1-ethenyloxypropan-2-yloxy)propanoate)]; settings: in DMSO
Procedure: as §1

[4] = compound: FC(F)(F)C(F)(F)C(F)(F)C(F)(F)C(F)(F)C(F)(F)C(F)(F)I [1-Iodopentadecafluoroheptane]; settings: in DMSO
Procedure: as §1

[5] = compound: FC(F)(F)C(F)(F)C(F)(F)C(F)(F)C(F)(F)C(F)(F)CC1CO1 [3-(Perfluorohexyl)-1,2-epoxypropane]; settings: in DMSO
Procedure: as §1

[6] = compound: FC(F)(F)C(F)(F)C(F)(F)CC1CO1 [1H,1H-Heptafluorobutyl epoxide]; settings: in DMSO
Procedure: as §1

Heptafluorobutyl iodide = compound: FC(F)(F)C(F)(F)C(F)(F)CI [Heptafluorobutyl iodide]; settings: in DMSO
Procedure: as §1

[7] = compound: FC(F)(F)C(F)(F)CNCC(F)(F)C(F)(F)F [Bis(1H,1H-perfluoropropyl)amine]; settings: in DMSO
Procedure: as §1

Octafluoroadipamide = compound: NC(=O)C(F)(F)C(F)(F)C(F)(F)C(F)(F)C(N)=O [Octafluoroadipamide]; settings: in DMSO
Procedure: as §1

Nonafluoropentanamide = compound: NC(=O)C(F)(F)C(F)(F)C(F)(F)C(F)(F)F [Nonafluoropentanamide]; settings: in DMSO
Procedure: as §1

[8] = compound: NC(=O)C(F)(F)C(F)(F)C(F)(F)C(F)F; settings: in DMSO
Procedure: as §1

[9] = compound: NS(=O)(=O)C(F)(F)C(F)(F)C(F)(F)C(F)(F)C(F)(F)C(F)(F)F [Perfluorohexanesulfonamide]; settings: in DMSO
Procedure: as §1

[10] = compound: O=C(O)C(F)(F)C(F)(F)C(F)(F)C(F)(F)C(F)(F)C(F)(F)C(F)(F)C(F)(F)C(F)(F)C(F)F [11-H-Perfluoroundecanoic acid]; settings: in DMSO
Procedure: as §1

[11] = compound: O=C(O)C=CC(F)(C(F)(F)F)C(F)(F)F [3-(Perfluoroisopropyl)-2-propenoic acid]; settings: in DMSO
Procedure: as §1

[12] = compound: O=S(=O)(Cl)C(F)(F)C(F)(F)C(F)(F)C(F)(F)C(F)(F)C(F)(F)C(F)(F)C(F)(F)F [Perfluoro-1-octanesulfonyl chloride]; settings: in DMSO
Procedure: as §1

[13] = compound: O=S(=O)(F)C(F)(F)C(F)(F)C(F)(F)C(F)(F)C(F)(F)C(F)(F)C(F)(F)C(F)(F)F [Perfluorooctanesulfonyl fluoride]; settings: in DMSO
Procedure: as §1

[14] = compound: O=S(=O)(O)C(F)(F)C(F)(F)C(F)(F)C(F)(F)C(F)(F)C(F)(F)C(F)(F)C(F)(F)C(F)(F)C(F)(F)F [Sodium perfluorodecanesulfonate]; settings: in DMSO
Procedure: as §1

[15] = compound: O=S(=O)(O)CCC(F)(F)C(F)(F)C(F)(F)C(F)(F)C(F)(F)C(F)(F)F [6:2 Fluorotelomer sulfonic acid]; settings: in DMSO
Procedure: as §1

Hexafluoroamylene glycol = compound: OCC(F)(F)C(F)(F)C(F)(F)CO [Hexafluoroamylene glycol]; settings: in DMSO
Procedure: as §1

In the case of 3C:CD142/Tissue Factor, the “level (log10)” value ([1]; 6700 nM) is reported as 0.0295 ± 0.0021, the “level (log10)” value ([1]; 20000 nM) is reported as 0.034 ± 0.013 and the “level (log10)” value ([1]; 60000 nM) is reported as 0.021 ± 0.054. For the same test system, the “level (log10)” value [2] was -0.29 ± 0.1, the “level (log10)” value ([3]; 6700 nM) was 0.0415 ± 0.064 and the “level (log10)” value ([3]; 20000 nM) was 0.0255 ± 0.0064. The “level (log10)” value ([4]; 6700 nM) was -0.0085 ± 0.015, the “level (log10)” value ([4]; 20000 nM) was -0.052 ± 0.076 and the “level (log10)” value ([5]; 6700 nM) was -0.042 ± 0.027. For the same test system, the “level (log10)” value ([5]; 20000 nM) was -0.05 ± 0.028, the “level (log10)” value ([5]; 60000 nM) was -0.0195 ± 0.029 and the “level (log10)” value ([6]; 6700 nM) was 0.034 ± 0.0071. For the same test system, the “level (log10)” value ([6]; 20000 nM) was 0 ± 0.033, the “level (log10)” value ([6]; 60000 nM) was 0.0075 ± 0.022 and the “level (log10)” value (Heptafluorobutyl iodide; 6700 nM) was -0.0315 ± 0.019. The “level (log10)” value (Heptafluorobutyl iodide; 20000 nM) was 0.0095 ± 0.016, the “level (log10)” value (Heptafluorobutyl iodide; 60000 nM) was -0.0155 ± 0.019 and the “level (log10)” value ([7]; 6700 nM) was 0.038 ± 0.05. For the same test system, the “level (log10)” value ([7]; 20000 nM) was -0.0105 ± 0.094, the “level (log10)” value ([7]; 60000 nM) was 0.0165 ± 0.11 and the “level (log10)” value (Octafluoroadipamide; 6700 nM) was 0.007 ± 0.082. For the same test system, the “level (log10)” value (Octafluoroadipamide; 20000 nM) was 0.0255 ± 0.073, the “level (log10)” value (Octafluoroadipamide; 60000 nM) was 0.0795 ± 0.046 and the “level (log10)” value (Nonafluoropentanamide; 6700 nM) was -0.049 ± 0.041. The “level (log10)” value (Nonafluoropentanamide; 20000 nM) was -0.0275 ± 0.04, the “level (log10)” value (Nonafluoropentanamide; 60000 nM) was -0.067 ± 0.044 and the “level (log10)” value ([8]; 6700 nM) was -0.0025 ± 0.066. The “level (log10)” value ([8]; 20000 nM) was 0.006 ± 0.033, the “level (log10)” value ([8]; 60000 nM) was 0.0115 ± 0.036 and the “level (log10)” value ([9]; 6700 nM) was 0.0005 ± 0.0078. The “level (log10)” value ([9]; 20000 nM) was -0.0285 ± 0.032, the “level (log10)” value ([9]; 60000 nM) was -0.0365 ± 0.029 and the “level (log10)” value ([10]; 6700 nM) was -0.011 ± 0.011. The “level (log10)” value ([10]; 20000 nM) was -0.0245 ± 0.013, the “level (log10)” value ([11]; 6700 nM) was -0.018 ± 0.065 and the “level (log10)” value ([11]; 20000 nM) was -0.036 ± 0.048. For the same test system, the “level (log10)” value ([11]; 60000 nM) was 0.003 ± 0.061, the “level (log10)” value ([12]; 6700 nM) was -0.035 ± 0.027 and the “level (log10)” value ([12]; 20000 nM) was 0.015 ± 0.013. For the same test system, the “level (log10)” value ([12]; 60000 nM) was 0.0705 ± 0.063, the “level (log10)” value ([13]; 6700 nM) was -0.0085 ± 0.005 and the “level (log10)” value ([13]; 20000 nM) was -0.0175 ± 0.0021. The “level (log10)” value ([13]; 60000 nM) was -0.0105 ± 0.0021, the “level (log10)” value ([14]; 1500 nM) was -0.0005 ± 0.04 and the “level (log10)” value ([14]; 4400 nM) was -0.0075 ± 0.015. For the same test system, the “level (log10)” value ([14]; 13000 nM) was 0.0205 ± 0.025, the “level (log10)” value ([14]; 40000 nM) was -0.0695 ± 0.0078 and the “level (log10)” value ([15]; 6700 nM) was -0.0065 ± 0.029. For the same test system, the “level (log10)” value ([15]; 20000 nM) was 0.006 ± 0.021, the “level (log10)” value ([15]; 60000 nM) was 0.0155 ± 0.064 and the “level (log10)” value (Hexafluoroamylene glycol; 6700 nM) was 0.014 ± 0.1. For the same test system, the “level (log10)” value (Hexafluoroamylene glycol; 20000 nM) was 0.013 ± 0.062 and the “level (log10)” value (Hexafluoroamylene glycol; 60000 nM) was 0.009 ± 0.1.
